Data on 51 molecules can be found in PubChem BioAssay AID1996.

Broadly, the solubility (kinetic) is the concentration staying in solution when a stock, usually in DMSO, is diluted into the medium.

Converted amounts (≈) assume the structure as drawn. Bounds are passed on as bounds.

For this series the following is noted: buffer; pH 7.4; 200.0 µM.
As to `O=C(Cn1cc(C(F)(F)F)ccc1=O)N1CCCc2ccccc21`, the kinetic solubility is over 50.4 µg/mL.
As for `CCOc1ccc(Cl)cc1CNCCCSc1ncccn1`, the figure is 43 µg/mL (≈ 127 µM).
Take `Cc1onc(-c2c(F)cccc2Cl)c1C(=O)NC1CC1`: the kinetic solubility is over 44.2 µg/mL.
Then `Cc1ccccc1N(CC(=O)N1CCCCCC1)S(C)(=O)=O`, with over 48.7 µg/mL; and `CSc1nc2c(c(=O)[nH]c(=O)n2C)n1Cc1ccc(Cl)cc1`, with 1.2 µg/mL (≈ 3.56 µM).
As for `Cc1cc(C(=O)NCCc2ccc(Cl)cc2)c(C)o1`, the figure is 31.1 µg/mL (≈ 112 µM); as for `CCNC(=O)N1CCCC(C(=O)c2ccc(OC)c(OC)c2)C1` (stereo unspecified), 35 µg/mL (≈ 109 µM); as for `CC1CC(C)(C)NC(=S)N1CCCC(=O)Nc1ccc(Cl)cc1` (stereo unspecified), 36.7 µg/mL (≈ 104 µM).
Turning to `Cc1cc(=O)oc2cc(OCC(=O)Nc3ccccc3C(=O)O)ccc12`, the solubility (kinetic) came out at 52.9 µg/mL (≈ 150 µM).
As for `CCN(CC(=O)Nc1ccc2c(c1)OCCO2)CC(=O)Nc1ccc(C)c([N+](=O)[O-])c1`, the figure is 7 µg/mL (≈ 16.3 µM); as for `CCOc1ncccc1C(=O)Nc1ccc(C)cn1`, 31.8 µg/mL (≈ 124 µM).
As for `CCN(CC)C(=O)c1cc(Cl)ccc1NC(=O)c1ccco1`, the figure is over 48.1 µg/mL; as for `COc1ccc(NC(=O)NCc2ccccn2)c(OC)c1`, 42.1 µg/mL (≈ 147 µM); as for `Cc1ccc(S(=O)(=O)Nc2ccccc2C(=O)N2CCCCC2)cc1`, over 53.8 µg/mL.
As for `C[C@@H]1CN(Cc2nc(-c3cccs3)no2)C[C@H](C)O1`, the figure is 38 µg/mL (≈ 136 µM); as for `CC1CCN(C(=O)CSc2nc3ncccc3[nH]2)CC1`, over 43.6 µg/mL.
On to `Cc1cc(=O)oc2cc(NS(=O)(=O)c3ccccc3)ccc12`, for which the kinetic solubility was 10.5 µg/mL (≈ 33.3 µM).
Then `O=C(Nc1nccs1)c1ccc2ccccc2c1`, with 1.3 µg/mL (≈ 5.11 µM); and `O=C(NC1CCS(=O)(=O)C1)c1ccc(Br)o1` (stereo unspecified), with 32.2 µg/mL (≈ 104 µM).
As for `O=C(NCc1ccccc1Cl)NC(=O)c1csc([N+](=O)[O-])c1`, the figure is under 0.2 µg/mL; as for `CC(=O)Nc1ccc(S(=O)(=O)N(C)C2CCN(C)CC2)cc1`, over 48.8 µg/mL; as for `CCOC(=O)C1=C(C)NC(C)=C(C(=O)OCC)C1c1ccc(C)o1`, 1.8 µg/mL (≈ 5.4 µM).
`CNC(=S)Nc1ccc2nc(C)oc2c1` showed a solubility (kinetic) of over 33.2 µg/mL.
As for `CC1CCC(C(C)C)C(OCC(O)CNC(C)(C)C)C1.Cl` (stereo unspecified), the figure is over 48.3 µg/mL; as for `CCN(Cc1ccncc1)Cc1ccc(Br)cc1.O=C(O)C(=O)O`, 30.6 µg/mL; as for `NS(=O)(=O)c1ccc(CNC(=O)/C=C/c2cccc([N+](=O)[O-])c2)cc1`, 14.2 µg/mL (≈ 39.3 µM).
`CSc1ccccc1NC(=O)COC(=O)c1cnc(C)cn1`: the solubility (kinetic) was over 47.6 µg/mL.
Then `CC1CN=C(Nc2ccc(F)cc2)S1` (stereo unspecified), with over 31.5 µg/mL; and `CC(=O)Nc1ccc(OCC(=O)NCc2ccc(C)cc2)cc1`, with over 46.9 µg/mL; and `COc1ccc(/C=C2/C(=O)ON=C2C)cc1Br`, with 14 µg/mL (≈ 47.3 µM).
As for `CCS(=O)(=O)N1CCN(CC(=O)NC2CCCCC2)CC1.Cl`, the figure is over 53.1 µg/mL.
Then `O=C(/C=C/c1ccc(OCCCF)cc1)N1CCOCC1`, with over 44 µg/mL.
In turn, `Cc1ccccc1NC(=O)c1ccc2c(c1)CCN2S(C)(=O)=O` returned a kinetic solubility of 6.3 µg/mL (≈ 19.1 µM).
As for `CC(=O)C1C(=O)c2c(cccc2[N+](=O)[O-])C1=Nc1cccc(Cl)c1` (stereo unspecified), the figure is 1.6 µg/mL (≈ 4.67 µM); as for `Cc1ccc(CSCC(=O)NCc2ccco2)cc1`, 36.8 µg/mL (≈ 134 µM).
Then `O=C(O)C1CCCN1C1=NS(=O)(=O)c2ccccc21` (stereo unspecified), with over 42 µg/mL.
As for `Cn1c(/C=C/c2cccc(Br)c2)nc2ccccc2c1=O`, the figure is 0.7 µg/mL (≈ 2.05 µM); as for `CC(C)Oc1ccc(C(=O)Nc2cccc(S(=O)(=O)N3CCCC3)c2)cc1`, 8.5 µg/mL (≈ 21.9 µM); as for `CCc1ccccc1NS(=O)(=O)c1cccc2nsnc12`, 44.8 µg/mL (≈ 140 µM).
`COc1ccc(N2CCN(C(=O)CN3C(=O)NC4(CCCCC4C)C3=O)CC2)cc1` (stereo unspecified) yielded a solubility (kinetic) of over 62.2 µg/mL.
Then `O=c1ccnc(Nc2ccc([N+](=O)[O-])cc2)[nH]1`, with over 34.8 µg/mL; and `CNC(=O)Nc1ccccc1C(=O)Nc1ccccc1`, with over 40.4 µg/mL.
As for `CCCCn1c(N)c(N(CC)C(=O)COc2ccc(C#N)cc2)c(=O)[nH]c1=O`, the figure is 15.6 µg/mL (≈ 40.5 µM).
As for `Cc1ccnc(NC(=O)c2ccc(Cl)s2)c1`, the figure is 16.1 µg/mL (≈ 63.7 µM); as for `O=C(Nc1cccc(Cl)c1)C1CCCN(c2cnccn2)C1` (stereo unspecified), over 47.5 µg/mL; as for `CCOC(=O)c1cc2c(ccn2C)n1Cc1ccc(Cl)cc1`, 1.3 µg/mL (≈ 4.1 µM).
The molecule `COc1cc([N+](=O)[O-])ccc1NC(=O)NCc1ccco1` registered a kinetic solubility of 13.8 µg/mL (≈ 47.4 µM). This solubility kinetic lies about 11-fold higher than the previous one.
For the molecule `COc1ccc(CCC(=O)N2CCN(c3ccc(OC)cc3)CC2)cc1`, the solubility (kinetic) amounted to 41 µg/mL (≈ 116 µM).
As for `COC(=O)c1ccc(CNC(=O)c2coc3ccccc3c2=O)cc1`, the figure is 3.7 µg/mL (≈ 11 µM); as for `CC(=O)Nc1ccc(NC(=O)c2ccc(OCc3c(C)noc3C)cc2)cc1`, 2.2 µg/mL (≈ 5.8 µM).
As for `COc1ccc(NC(=O)COC(=O)CCC2CCCC2)c(OC)c1`, the figure is 17.4 µg/mL (≈ 51.9 µM).
